Legend:
Recombinant human BACE1 = target: T1, Recombinant human BACE1 (Homo sapiens, UniProt P56817); assay: Assay of BACE1 inhibitory activity: 384-well; format: biochemical; conditions: Assay format 384-well
T1 construct: purchased R&D Systems
Experimental: 5 μL of substrate peptide solution (Biotin-XSEVNLDAEFRHDSGC-Eu: X=ε-amino-n-capronic acid, Eu=Europium eryplate) was added to each well of 384-well plate (a black plate: Corning), and after addition of 0.1 μl of the compound of the present invention (DMSO solution) and 5 μl of Recombinant human BACE1 (R&D Systems), the reaction mixture was incubated at 25° C. for 2 hours. The substrate peptide was synthesized by reacting Cryptate TBPCOOH mono SMP (CIS bio international) with Biotin-XSEVNLDAEFRHDSGC (Peptide Institute, Inc.).
After the incubation for reaction, 10 μl of 8.0 μg/ml Streptavidin-XL665 (CIS bio International) dissolved in phosphate buffer (150 mmol/L K2HPO4-KH2PO4, pH 7.0, 0.008% Triton X-100, 0.8 mol/L KF) was added to each well and left stand at 25° C. for 30 minutes.

[1] = tested on: Aβ production in neuroblastoma SH-SY5Y cells (SH/APPwt); assay: β-amyloid (Aβ) production inhibitory effect in cell: 384-well; format: cell-based; conditions: Homo sapiens, Assay format 384-well
Experimental: Neuroblastoma SH-SY5Y cells (SH/APPwt) with human wild-type β-APT excessively expressed therein were prepared at 4×10^5 cells/mL, and 50 μl portions thereof were inoculated into each well of a 384-well culture plate (Corning) added 0.5 μl of the test compound of the present invention (DMSO solution). The final DMSO concentration was 1%, and the amount of the cell culture was 50 μl. After the incubation was performed for 21 hours from the cell seeding, 5 μl of the culture supernatant was collected from each fraction. The amount of the Aβ in each fraction was measured.
The Aβ amount was measured as follows. 5 μl of a homogeneous time resolved fluoresrenee (HTRF) measurement reagent (Amyloid β1-40 peptide; CIS bio international) and 5 μl of the culture supernatant were put into a 384′well plate (a black plate: Corning) and mixed with each other, and then left standing overnight at 4° C. while the light was shielded. Then, the fluorescence intensity (620 nm and 665 nm) was measured with EnViston (Perkin Elmer life sciences).

CYP1A2 = target: T2, CYP1A2 (Homo sapiens, UniProt P05177); assay: CYP inhibition test (CYP1A2); format: in vitro ADME; conditions: pooled human liver microsomes; 7-ethoxyresorufin O-deethylation
T2 construct: The commercially available pooled human liver microsomes are used as an enzyme resource; from tissue; host or cells: pooled human liver microsomes
T2 sequence (P05177 1-516): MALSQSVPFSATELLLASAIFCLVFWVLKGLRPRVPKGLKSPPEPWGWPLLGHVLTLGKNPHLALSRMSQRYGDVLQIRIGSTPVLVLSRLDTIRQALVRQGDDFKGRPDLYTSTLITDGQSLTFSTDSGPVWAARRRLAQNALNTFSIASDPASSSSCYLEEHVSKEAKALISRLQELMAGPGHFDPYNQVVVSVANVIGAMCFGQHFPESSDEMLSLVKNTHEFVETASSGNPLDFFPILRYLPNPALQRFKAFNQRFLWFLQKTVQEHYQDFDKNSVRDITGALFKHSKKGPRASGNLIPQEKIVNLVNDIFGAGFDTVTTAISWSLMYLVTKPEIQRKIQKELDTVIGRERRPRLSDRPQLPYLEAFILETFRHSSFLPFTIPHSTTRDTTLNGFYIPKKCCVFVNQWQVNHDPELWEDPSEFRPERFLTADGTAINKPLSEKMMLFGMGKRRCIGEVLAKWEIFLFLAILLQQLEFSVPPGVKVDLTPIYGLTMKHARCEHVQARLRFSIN
From the text: (§1) The CYP inhibition test is a test to assess the inhibitory effect of a compound of the present invention towards typical substrate metabolism reactions on CYP enzymes in human liver microsomes. The marker reactions on human main five CYP enzymes (CYP1A2, 2C9, 2C19, 2D6, and 3A4) are used as follows: 7-ethoxyresorufin O-deethylation (CYP1A2), tolbutamide methyl-hydroxylation (CYP2C9), mephenytoin 4′-hydroxylation (CYP2C19), dextromethorphan O-demethylation (CYP2D6), and terfenadine hydroxylation (CYP3A4). The commercially available pooled human liver microsomes are used as an enzyme resource.
(§2) The reaction conditions were as follows: substrate, 0.5 μmol/L ethoxyresorufin (CYP1A2), 100 μmol/L tolbutamide (CYP2C9), 50 μmol/L, S-mephenytoin (CYP2C19), 5 μmol/L dextromethorphan (CYP2D6), 1 μmol/L terfenadine (CYP3A4): reaction time, 15 minutes: reaction temperature, 37° C.; enzyme, pooled human liver microsomes 0.2 mg protein/mL; concentrations of the compound of the present invention, 1, 5, 10, 20 μmol/L (four points).
(§3) Five kinds of substrates, human liver microsomes, and a compound solution of the present invention in […] Hepes buffer were added to a 96-well plate at the composition as described above as a reaction solution. NADPH as a cofactor was added to this 96-well plate in order to initiate metabolism reactions. After the incubation at 37° C.for […], a methanol/acetonitrile=1/1 (v/v) solution was added to stop the reaction. After the centrifugation at 3000 rpm for 15 minutes, resorufin (CYP1A2 metabolite) in the supernatant was quantified by a fluorescent plate reader, and hydroxytolbutamide (CYP2C9 metabolite), 4′-hydroxymephenytoin (CYP2C19 metabolite), dextrorphan (CYP2D6 metabolite), and terfenadine alcohol metabolite (CYP3A4 metabolite) in the supernatant were quantified by LC/MS/MS.
(§4) The sample adding DMSO to a reaction system instead of compound of the present invention solution was adopted as a control (100%) because DMSO was used as a solvent to dissolve a compound of the present invention. Remaining activity (%) was calculated at each concentration of a compound of the present invention, and IC50 value was calculated by reverse presumption by a logistic model using a concentration and an inhibition rate.

CYP2C9 = target: T3, CYP2C9 (Homo sapiens, UniProt P11712); assay: CYP inhibition test (CYP2C9); format: in vitro ADME; conditions: pooled human liver microsomes; tolbutamide methyl-hydroxylation
T3 construct: The commercially available pooled human liver microsomes are used as an enzyme resource; from tissue; host or cells: pooled human liver microsomes
T3 sequence (P11712 whole entry): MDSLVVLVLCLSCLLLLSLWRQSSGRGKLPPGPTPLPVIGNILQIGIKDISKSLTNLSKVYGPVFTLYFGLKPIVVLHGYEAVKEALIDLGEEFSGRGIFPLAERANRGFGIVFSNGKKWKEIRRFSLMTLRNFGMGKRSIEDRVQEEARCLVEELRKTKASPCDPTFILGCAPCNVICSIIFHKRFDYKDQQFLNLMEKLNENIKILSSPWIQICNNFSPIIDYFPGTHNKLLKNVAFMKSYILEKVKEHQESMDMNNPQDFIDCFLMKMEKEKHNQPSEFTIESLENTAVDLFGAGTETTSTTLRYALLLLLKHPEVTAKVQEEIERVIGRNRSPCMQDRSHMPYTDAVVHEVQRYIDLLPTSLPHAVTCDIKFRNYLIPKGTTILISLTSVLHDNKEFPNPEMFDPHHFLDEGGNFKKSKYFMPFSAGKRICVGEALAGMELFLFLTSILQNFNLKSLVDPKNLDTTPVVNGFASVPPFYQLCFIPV
From the text: as §1, §2, §3, §4

CYP2C19 = target: T4, CYP2C19 (Homo sapiens, UniProt P33261); assay: CYP inhibition test (CYP2C19); format: in vitro ADME; conditions: pooled human liver microsomes; mephenytoin 4′-hydroxylation
T4 construct: The commercially available pooled human liver microsomes are used as an enzyme resource; from tissue; host or cells: pooled human liver microsomes
T4 sequence (P33261 whole entry): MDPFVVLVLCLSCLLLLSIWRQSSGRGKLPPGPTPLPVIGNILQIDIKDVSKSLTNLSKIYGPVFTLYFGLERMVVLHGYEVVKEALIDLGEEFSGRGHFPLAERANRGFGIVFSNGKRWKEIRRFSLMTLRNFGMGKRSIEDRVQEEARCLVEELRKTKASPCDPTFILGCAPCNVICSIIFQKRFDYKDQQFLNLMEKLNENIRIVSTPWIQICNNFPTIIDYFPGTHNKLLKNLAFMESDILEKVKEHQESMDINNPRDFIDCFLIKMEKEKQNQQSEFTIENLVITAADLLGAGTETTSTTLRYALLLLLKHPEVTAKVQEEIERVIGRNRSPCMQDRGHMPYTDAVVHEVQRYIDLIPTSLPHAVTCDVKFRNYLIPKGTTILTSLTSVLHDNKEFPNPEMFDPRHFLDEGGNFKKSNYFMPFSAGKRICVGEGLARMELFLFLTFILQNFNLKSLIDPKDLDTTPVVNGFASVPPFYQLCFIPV
From the text: as §1, §2, §3, §4

CYP3A4 = target: T5, CYP3A4 (Homo sapiens, UniProt P08684); assay: CYP inhibition test (CYP3A4); format: in vitro ADME; conditions: pooled human liver microsomes; terfenadine hydroxylation
T5 construct: The commercially available pooled human liver microsomes are used as an enzyme resource; from tissue; host or cells: pooled human liver microsomes
T5 sequence (P08684 whole entry): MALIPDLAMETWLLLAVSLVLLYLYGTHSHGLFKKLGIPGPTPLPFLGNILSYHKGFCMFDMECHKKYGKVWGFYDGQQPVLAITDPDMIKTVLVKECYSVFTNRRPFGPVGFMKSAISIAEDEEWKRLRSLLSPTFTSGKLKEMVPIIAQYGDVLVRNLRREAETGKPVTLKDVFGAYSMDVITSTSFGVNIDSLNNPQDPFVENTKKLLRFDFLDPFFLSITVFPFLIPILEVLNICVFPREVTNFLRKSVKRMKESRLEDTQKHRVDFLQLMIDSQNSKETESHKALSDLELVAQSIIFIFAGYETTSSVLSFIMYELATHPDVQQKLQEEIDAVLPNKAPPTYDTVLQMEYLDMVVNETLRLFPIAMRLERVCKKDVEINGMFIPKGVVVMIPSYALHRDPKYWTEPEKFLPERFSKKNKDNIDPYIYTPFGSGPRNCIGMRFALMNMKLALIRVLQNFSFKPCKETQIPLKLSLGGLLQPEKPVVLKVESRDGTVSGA
From the text: as §1, §2, §3, §4

Solubility test = format: physicochemical; conditions: for solubility kinetic at 1 h: JP 1st fluid, pH 1.2, simulated gastric fluid, kinetic from dmso stock, read-out: JP1; for solubility kinetic at 16 h: solubility in JP 2nd fluid B, 1% DMSO, *2: shaken for 1 hour at room temperature, read-out: JP2_μM
Experimental: A 10 mmol/L solution of the compound was prepared with DMSO, and 2 μL of the compound of the present invention solution was added, respectively, to 198 μL of JP 1st fluid (water was added to 2.0 g of sodium chloride and 7.0 ml, of hydrochloric acid to reach 1000 mL) and JP 2nd fluid (See Table 4). The mixture was left standing for 16 hours at 25° C. or shaken for 1 hour at ruom temperature, and the mixture was vacuum-filtered. The […] was ten or one hundred-fold diluted with metbanol/water=1/1 (v/v) or MeCN/MeOH/H2O(=1/1/2), and the compound concent ration in the filtrate was measured with LC/MS or solid phase extraction (SPE)/MS by the absolute calibration method.

[2] = target: T6, human ether-a-go-go related gene (hERG) channel (Homo sapiens, UniProt Q12809); assay: hERG test; format: cell-based; conditions: % inhibition of IKr tail peak current at 3 uM; CHO cells expressing hERG
T6 construct: expressed in transfected cells; host or cells: CHO cells
T6 sequence (Q12809 whole entry): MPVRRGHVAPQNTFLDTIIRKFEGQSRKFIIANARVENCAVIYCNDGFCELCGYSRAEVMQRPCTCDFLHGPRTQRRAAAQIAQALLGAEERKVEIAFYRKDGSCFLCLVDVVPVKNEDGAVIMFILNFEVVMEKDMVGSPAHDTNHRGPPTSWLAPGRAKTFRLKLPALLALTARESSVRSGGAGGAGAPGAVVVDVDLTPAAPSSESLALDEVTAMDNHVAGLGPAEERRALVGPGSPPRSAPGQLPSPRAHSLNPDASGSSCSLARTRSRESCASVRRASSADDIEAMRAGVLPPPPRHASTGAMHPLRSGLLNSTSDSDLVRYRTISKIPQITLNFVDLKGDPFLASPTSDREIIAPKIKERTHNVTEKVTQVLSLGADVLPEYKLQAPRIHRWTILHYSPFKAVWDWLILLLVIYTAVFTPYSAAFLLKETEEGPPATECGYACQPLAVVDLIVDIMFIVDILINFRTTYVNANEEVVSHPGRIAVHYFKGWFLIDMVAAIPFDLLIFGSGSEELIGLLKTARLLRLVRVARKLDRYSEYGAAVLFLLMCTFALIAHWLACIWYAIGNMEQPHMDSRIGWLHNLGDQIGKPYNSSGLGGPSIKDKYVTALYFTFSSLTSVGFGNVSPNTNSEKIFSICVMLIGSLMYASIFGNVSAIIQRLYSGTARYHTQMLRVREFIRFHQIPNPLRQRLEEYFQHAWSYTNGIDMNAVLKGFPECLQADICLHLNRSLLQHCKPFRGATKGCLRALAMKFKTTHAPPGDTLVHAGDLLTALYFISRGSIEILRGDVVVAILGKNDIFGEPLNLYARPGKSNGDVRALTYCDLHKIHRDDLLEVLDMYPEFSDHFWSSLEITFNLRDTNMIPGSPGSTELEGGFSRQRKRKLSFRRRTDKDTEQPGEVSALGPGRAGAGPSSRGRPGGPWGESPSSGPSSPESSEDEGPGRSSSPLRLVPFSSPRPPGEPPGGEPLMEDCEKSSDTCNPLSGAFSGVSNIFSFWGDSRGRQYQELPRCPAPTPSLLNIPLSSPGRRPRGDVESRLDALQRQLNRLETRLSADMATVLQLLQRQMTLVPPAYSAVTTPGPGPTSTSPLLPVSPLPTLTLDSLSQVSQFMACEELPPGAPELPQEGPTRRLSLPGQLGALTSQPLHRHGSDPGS
From the text: For the purpose of assessing risk of an electrocardiogram QT interval prolongation, effects on delayed rectifier K+ current (IKr), which plays an important role in the ventricular repolarization process of the compound of the present invention, was studied using CHO cells expressing human ether-a-go-go related gene (hERG) channel.
A cell was retained at a membrane potential of […] by whole cell patch clamp method using an automated patch clamp system (QPatch:Sophion Bioscience A/S). After application of leak potential at −50 mV, IKr induced by depolarization pulse stimulation at +20 mV for 2 seconds and, further, repolarization pulse stimulation at −50 mV for 2 seconds was recorded.

CYP2D6 = target: T7, CYP2D6 (Homo sapiens, UniProt P10635); assay: CYP inhibition test (CYP2D6); format: in vitro ADME; conditions: pooled human liver microsomes; dextromethorphan O-demethylation
T7 construct: The commercially available pooled human liver microsomes are used as an enzyme resource; from tissue; host or cells: pooled human liver microsomes
T7 sequence (P10635 whole entry): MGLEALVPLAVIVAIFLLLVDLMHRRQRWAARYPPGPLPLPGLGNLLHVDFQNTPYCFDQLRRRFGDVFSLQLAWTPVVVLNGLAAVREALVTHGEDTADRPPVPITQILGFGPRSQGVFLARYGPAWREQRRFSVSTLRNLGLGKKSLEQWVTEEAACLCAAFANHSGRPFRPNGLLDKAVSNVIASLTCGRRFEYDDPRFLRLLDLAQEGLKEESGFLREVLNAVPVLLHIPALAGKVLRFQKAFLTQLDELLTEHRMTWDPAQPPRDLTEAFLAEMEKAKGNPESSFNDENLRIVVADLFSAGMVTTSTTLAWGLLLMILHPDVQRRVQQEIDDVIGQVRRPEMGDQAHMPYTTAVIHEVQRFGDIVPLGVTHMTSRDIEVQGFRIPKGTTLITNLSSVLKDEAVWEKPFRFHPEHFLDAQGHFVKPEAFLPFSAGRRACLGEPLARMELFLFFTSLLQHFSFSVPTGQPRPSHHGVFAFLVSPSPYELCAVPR
From the text: as §1, §2, §3, §4

Metabolic stability test = format: in vitro ADME; conditions: human liver microsomes, 37° C., 30 minutes, NADPH
Experimental: Using a commercially available pooled human liver microsomes, a compound of the present invention was reacted for a constant time, a remaining rate was calculated by comparing a reacted sample and an unreacted sample, thereby, a degree of metabolism in liver was assessed.
A reaction was performed (oxidative reaction) at 37° C. for 0 minute or 30 minutes in the presence of 1 mmol/L NADPH in 0.2 mL of a buffer (60 mmol/L Tris-HCl pH 7.4, 150 mmol/L potassium chloride, 10 mmol/L magnesium chloride) containing 0.5 mg protein/mL of human liver microsomes. After the reaction, 50 μL of the reaction solution was added to 100 μL of a methanol/acetonltrile=1/1 (v/v), mixed and centrifuged at 3000 rpm for 15 minutes. The compound of the present invention in the supernatant was quantified by LC/MS/MS or solid phase extraction (SPE)/MS, and a remaining amount of the compound of the present invention after the reaction area calculated, letting a compound amount at 0 minute reaction time to be 100%.

T1 sequence (P56817 46-501): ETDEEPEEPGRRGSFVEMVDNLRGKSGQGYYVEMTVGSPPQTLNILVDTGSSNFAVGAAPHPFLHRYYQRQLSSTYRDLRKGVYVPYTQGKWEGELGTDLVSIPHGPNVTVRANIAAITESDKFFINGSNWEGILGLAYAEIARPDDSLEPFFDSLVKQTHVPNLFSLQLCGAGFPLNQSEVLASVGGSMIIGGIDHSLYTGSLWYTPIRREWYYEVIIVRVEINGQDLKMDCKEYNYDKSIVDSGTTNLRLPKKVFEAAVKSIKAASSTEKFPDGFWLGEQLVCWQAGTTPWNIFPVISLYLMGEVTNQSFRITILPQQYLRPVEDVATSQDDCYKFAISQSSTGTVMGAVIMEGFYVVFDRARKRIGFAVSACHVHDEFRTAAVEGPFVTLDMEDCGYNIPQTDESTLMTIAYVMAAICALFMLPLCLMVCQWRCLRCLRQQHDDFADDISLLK

| SMILES | IC50 (Recombinant human BACE1) [µM] | IC50 [1] [µM] | IC50 (CYP1A2) [µM] | IC50 (CYP2C9) [µM] | IC50 (CYP2C19) [µM] | IC50 (CYP3A4) [µM] | solubility kinetic at 1 h (Solubility test) [µM] | solubility kinetic at 16 h (Solubility test) [µM] | hERG_3 uM_% [2] [%] | IC50 (CYP2D6) [µM] | remaining % (Metabolic stability test) [%] |
| --- | --- | --- | --- | --- | --- | --- | --- | --- | --- | --- | --- |
| COCC(F)(F)[C@H]1OC(N)=N[C@](C)(c2cc(NC(=O)c3cnc(OC)cn3)ccc2F)[C@H]1F [Compound I-80] | 0.0355 | 0.018 | ≥ 20 | ≥ 10 | ≥ 20 | ≥ 10 | > 50 | >50 | 8.9 | – | – |
| C[C@]1(c2cc(NC(=O)c3ccc(OCF)cn3)ccc2F)N=C(N)SCC12CC(F)(F)C2 [Compound I-58] | 0.0137 | 0.00068 | ≥ 20 | ≥ 20 | ≥ 20 | – | > 50 | >50 | 58.6 | – | – |
| C[C@H]1SC(N)=N[C@](C)(c2cccc(NC(=O)c3ccc(C#N)cn3)c2)[C@H]1F [Compound I-102] | 0.0234 | 0.0016 | ≥ 20 | ≥ 20 | ≥ 20 | ≥ 20 | > 50 | >50.0 | – | ≥ 20 | 78.1 |
| C[C@]1(c2cc(NC(=O)c3ccc(F)cn3)ccc2F)N=C(N)SCC12CC(F)(F)C2 [Compound I-61] | 0.0154 | 0.0013 | ≥ 20 | ≥ 20 | ≥ 20 | ≥ 10 | > 50 | >50 | – | – | 71.5 |
| Cc1cc(C#N)cnc1C(=O)Nc1ccc(F)c([C@@]2(C)N=C(N)O[C@H](C3(F)CC3)[C@@H]2F)c1 [Compound I-99] | 0.0245 | 0.00099 | ≥ 20 | ≥ 10 | ≥ 20 | ≥ 20 | > 50 | >50.0 | – | ≥ 10 | 89.4 |

Reference: US20170073337A1, “DIHYDROTHIAZINE AND DIHYDROOXAZINE DERIVATIVES HAVING BACE1 INHIBITORY ACTIVITY” (Shionogi & Co., Ltd., priority 2014, published 2017)
